Laboratory results reported in ChEMBL document CHEMBL3045426, “Synthesis, Antiviral and Antibacterial Activities of Isatin Mannich Bases” (Med Chem Res, 2005).
≈ marks a conversion by molar mass, not a printed value.

Tested on: Vibrio fluvialis
Assay: Antimicrobial activity against Vibrio fluvialis after 18 to 20 hr by agar dilution method
Type: functional
Conditions: not given

Row | SMILES | MIC
1 | CCn1cc(C(=O)O)c(=O)c2cc(F)c(N3CCN(CN4C(=O)/C(=N\c5ncc(Cc6cc(OC)c(OC)c(OC)c6)c(N)n5)c5cc(Cl)ccc54)C(C)C3)c(F)c21 (centres undefined) | 0.019 µg/mL (≈ 0.0232 µM)

Tested on: Vibrio mimicus
Assay: Antimicrobial activity against Vibrio mimicus after 18 to 20 hr by agar dilution method
Type: functional
Conditions: not given

Row | SMILES | MIC
2 | CCn1cc(C(=O)O)c(=O)c2cc(F)c(N3CCN(CN4C(=O)/C(=N\c5ncc(Cc6cc(OC)c(OC)c(OC)c6)c(N)n5)c5cc(Cl)ccc54)C(C)C3)c(F)c21 (centres undefined) | 0.0381 µg/mL (≈ 0.0466 µM)

Tested on: Pseudomonas aeruginosa
Assay: Antimicrobial activity against Pseudomonas aeruginosa after 18 to 20 hr by agar dilution method
Type: functional
Conditions: not given

Row | SMILES | MIC
3 | CCn1cc(C(=O)O)c(=O)c2cc(F)c(N3CCN(CN4C(=O)/C(=N\c5ncc(Cc6cc(OC)c(OC)c(OC)c6)c(N)n5)c5cc(Cl)ccc54)C(C)C3)c(F)c21 (centres undefined) | 0.153 µg/mL (≈ 0.187 µM)

Tested on: Staphylococcus aureus
Assay: Antimicrobial activity against Staphylococcus aureus after 18 to 20 hr by agar dilution method
Type: functional
Conditions: not given

Row | SMILES | MIC
4 | CCn1cc(C(=O)O)c(=O)c2cc(F)c(N3CCN(CN4C(=O)/C(=N\c5ncc(Cc6cc(OC)c(OC)c(OC)c6)c(N)n5)c5cc(Cl)ccc54)C(C)C3)c(F)c21 (centres undefined) | 0.0763 µg/mL (≈ 0.0934 µM)

Tested on: Morganella morganii
Assay: Antimicrobial activity against Morganella morganii after 18 to 20 hr by agar dilution method
Type: functional
Conditions: not given

Row | SMILES | MIC
5 | CCn1cc(C(=O)O)c(=O)c2cc(F)c(N3CCN(CN4C(=O)/C(=N\c5ncc(Cc6cc(OC)c(OC)c(OC)c6)c(N)n5)c5cc(Cl)ccc54)C(C)C3)c(F)c21 (centres undefined) | 0.153 µg/mL (≈ 0.187 µM)

Tested on: Shigella boydii
Assay: Antimicrobial activity against Shigella boydii after 18 to 20 hr by agar dilution method
Type: functional
Conditions: not given

Row | SMILES | MIC
6 | CCn1cc(C(=O)O)c(=O)c2cc(F)c(N3CCN(CN4C(=O)/C(=N\c5ncc(Cc6cc(OC)c(OC)c(OC)c6)c(N)n5)c5cc(Cl)ccc54)C(C)C3)c(F)c21 (centres undefined) | 0.305 µg/mL (≈ 0.373 µM)

Tested on: Plesiomonas
Assay: Antimicrobial activity against Plesiomonas after 18 to 20 hr by agar dilution method
Type: functional
Conditions: not given

Row | SMILES | MIC
7 | CCn1cc(C(=O)O)c(=O)c2cc(F)c(N3CCN(CN4C(=O)/C(=N\c5ncc(Cc6cc(OC)c(OC)c(OC)c6)c(N)n5)c5cc(Cl)ccc54)C(C)C3)c(F)c21 (centres undefined) | 1.22 µg/mL (≈ 1.49 µM)

Tested on: Shigella sonnei
Assay: Antimicrobial activity against Shigella sonnei after 18 to 20 hr by agar dilution method
Type: functional
Conditions: not given

Row | SMILES | MIC
8 | CCn1cc(C(=O)O)c(=O)c2cc(F)c(N3CCN(CN4C(=O)/C(=N\c5ncc(Cc6cc(OC)c(OC)c(OC)c6)c(N)n5)c5cc(Cl)ccc54)C(C)C3)c(F)c21 (centres undefined) | 4.88 µg/mL (≈ 5.97 µM)

Tested on: Klebsiella pneumoniae
Assay: Antimicrobial activity against Klebsiella pneumoniae after 18 to 20 hr by agar dilution method
Type: functional
Conditions: not given

Row | SMILES | MIC
9 | CCn1cc(C(=O)O)c(=O)c2cc(F)c(N3CCN(CN4C(=O)/C(=N\c5ncc(Cc6cc(OC)c(OC)c(OC)c6)c(N)n5)c5cc(Cl)ccc54)C(C)C3)c(F)c21 (centres undefined) | 9.77 µg/mL (≈ 11.9 µM)

Tested on: Klebsiella pneumoniae
Assay: Antimicrobial activity against Klebsiella pneumoniae subsp. ozaenae after 18 to 20 hr by agar dilution method
Type: functional
Conditions: not given

Row | SMILES | MIC
10 | CCn1cc(C(=O)O)c(=O)c2cc(F)c(N3CCN(CN4C(=O)/C(=N\c5ncc(Cc6cc(OC)c(OC)c(OC)c6)c(N)n5)c5cc(Cl)ccc54)C(C)C3)c(F)c21 (centres undefined) | 19.5 µg/mL (≈ 23.9 µM)

Tested on: Mycobacterium tuberculosis
Assay: Antimycobacterial activity against Mycobacterium tuberculosis H37Rv ATCC 27294 at 6.25 ug/ml by MABA
Type: functional
Conditions: not given

Row | SMILES | inhibition at 6.25 µg/mL
11 | CCn1cc(C(=O)O)c(=O)c2cc(F)c(N3CCN(CN4C(=O)/C(=N\c5ncc(Cc6cc(OC)c(OC)c(OC)c6)c(N)n5)c5cc(Cl)ccc54)C(C)C3)c(F)c21 (centres undefined) | 100%

Tested on: not listed separately
Assay: Cytotoxicity against Homo sapiens (human) HuH7 cells assessed as cell growth at 50 ug/ml after 3 days by Neutral red assay
Type: cell-based, Huh-7
Conditions: read-out: Activity

Row | SMILES | viability at 72 h, 50 ug/ml
12 | CCn1cc(C(=O)O)c(=O)c2cc(F)c(N3CCN(CN4C(=O)/C(=N\c5ncc(Cc6cc(OC)c(OC)c(OC)c6)c(N)n5)c5cc(Cl)ccc54)C(C)C3)c(F)c21 (centres undefined) | 85%

Tested on: not listed separately
Assay: Cytotoxicity against Homo sapiens (human) CEM cells after 5 days by MTT assay
Type: cell-based
Conditions: CEM cells (CCRF-CEM)

Row | SMILES | CC50 at 120 h
13 | CCn1cc(C(=O)O)c(=O)c2cc(F)c(N3CCN(CN4C(=O)/C(=N\c5ncc(Cc6cc(OC)c(OC)c(OC)c6)c(N)n5)c5cc(Cl)ccc54)C(C)C3)c(F)c21 (centres undefined) | 18.7 µg/mL (≈ 22.9 µM)

Tested on: Human immunodeficiency virus 1
Assay: Antiviral activity against Human immunodeficiency virus 1 IIIB infected CEM cells assessed as protection against viral infection after 6 days by XTT assay
Type: functional, CCRF-CEM
Design: concentration or dose not given beside the values
Conditions: not given

Row | SMILES | Activity
14 | CCn1cc(C(=O)O)c(=O)c2cc(F)c(N3CCN(CN4C(=O)/C(=N\c5ncc(Cc6cc(OC)c(OC)c(OC)c6)c(N)n5)c5cc(Cl)ccc54)C(C)C3)c(F)c21 (centres undefined) | 48.3%

Tested on: Human immunodeficiency virus 1
Assay: Antiviral activity against Human immunodeficiency virus 1 IIIB infected CEM cells assessed as inhibition of virus-induced cytopathicity after 6 days by XTT assay
Type: functional, organism-based
Conditions: CCRF-CEM, 144 h

Row | SMILES | EC50
15 | CCn1cc(C(=O)O)c(=O)c2cc(F)c(N3CCN(CN4C(=O)/C(=N\c5ncc(Cc6cc(OC)c(OC)c(OC)c6)c(N)n5)c5cc(Cl)ccc54)C(C)C3)c(F)c21 (centres undefined) | > 18.7 µg/mL

Tested on: not listed separately
Assay: Cytotoxicity against Homo sapiens (human) MT4 cells after 5 days by MTT assay
Type: cell-based
Conditions: not given

Row | SMILES | CC50 at 120 h
16 | CCn1cc(C(=O)O)c(=O)c2cc(F)c(N3CCN(CN4C(=O)/C(=N\c5ncc(Cc6cc(OC)c(OC)c(OC)c6)c(N)n5)c5cc(Cl)ccc54)C(C)C3)c(F)c21 (centres undefined) | 36.9 µg/mL (≈ 45.2 µM)

Tested on: Human immunodeficiency virus 1
Assay: Antiviral activity against Human immunodeficiency virus 1 IIIB infected MT4 cells assessed as inhibition of virus-induced cytopathicity after 5 days by MTT assay
Type: functional, organism-based
Conditions: MT4, 120 h

Row | SMILES | EC50
17 | CCn1cc(C(=O)O)c(=O)c2cc(F)c(N3CCN(CN4C(=O)/C(=N\c5ncc(Cc6cc(OC)c(OC)c(OC)c6)c(N)n5)c5cc(Cl)ccc54)C(C)C3)c(F)c21 (centres undefined) | 17.2 µg/mL (≈ 21 µM)

Tested on: Hepatitis C virus
Assay: Antiviral activity against Hepatitis C virus BM4-5 infected in Huh7 cells assessed as inhibition of viral RNA replication by phosphor screening method
Type: functional, Hepacivirus hominis, Huh-7
Conditions: not given

Row | SMILES | inhibition (INH)
18 | CCn1cc(C(=O)O)c(=O)c2cc(F)c(N3CCN(CN4C(=O)/C(=N\c5ncc(Cc6cc(OC)c(OC)c(OC)c6)c(N)n5)c5cc(Cl)ccc54)C(C)C3)c(F)c21 (centres undefined) | 60%

Tested on: Human immunodeficiency virus 1
Assay: Antiviral activity against Human immunodeficiency virus 1 IIIB infected MT4 cells assessed as protection against viral infection after 5 days by MTT assay
Type: functional
Design: concentration or dose not given beside the values
Conditions: not given

Row | SMILES | Activity
19 | CCn1cc(C(=O)O)c(=O)c2cc(F)c(N3CCN(CN4C(=O)/C(=N\c5ncc(Cc6cc(OC)c(OC)c(OC)c6)c(N)n5)c5cc(Cl)ccc54)C(C)C3)c(F)c21 (centres undefined) | 89%
